In PMC9102668, “Highly Cytotoxic Osmium(II) Compounds and Their Ruthenium(II) Analogues Targeting Ovarian Carcinoma Cell Lines and Evading Cisplatin Resistance Mechanisms” (International Journal of Molecular Sciences, 2022):

How the values were obtained:
Assay type in all cases: cell-based
[1] = system: A2780cis; experiment: MTT assay (CellTiter96), cytotoxic activity; details: for RF A2780 (resistance factor): A2780cis vs A2780; for IC50: Cisplatin resistant A2780, MTT assay, 48 h incubation
Method: (§1) The biological behaviour of all substances was characterized by their cytotoxic activity against a panel of cell lines enabling an understanding of the structure-activity relationship. Cytotoxic activity was determined on ovarian carcinoma cell lines SKOV3 and A2780 as well as their Cisplatin resistant analogues (SKOV3cis and A2780cis) and the lung carcinoma cell line A549. Due to a low solubility in water, dmso is used as a solvent for the preparation of a dilution series in cell culture experiments. The toxic influence of dmso was determined earlier and experiments were carried out with 0.5% dmso in cell culture media and this concentration was used as reference sample in each MTT assay (details: Section 3). […] Resistance factors (RF) were determined for all substances (for IC50 values and RF of β-Hydroxydithiocinnamic acid esters L1–L18, see Tables S2 and S3, Supplementary part). All investigated ruthenium(II) compounds show lower RF values than Cisplatin on ovarian carcinoma cell lines, ranging from 0.2 to 1.5 (Table 3). Whereas the IC50 values on the non-resistant cell lines are in most cases higher than the IC50 of the reference substance, no increase of IC50 values is observed for the resistant cell lines. Contrary, eight ruthenium complexes show lower IC50 values on SKOV3cis than Cisplatin and four compounds on A2780cis. Thus, it can be concluded that these compounds are able to bypass the Cisplatin resistance mechanism in these cell lines pointing to a different mechanism of action.
(§2) Ovarian cancer cell lines were cultured under standard conditions (5% CO2, 37 °C, 90% humidity) in RPMI medium supplemented with 10% FCS, 100 U/mL penicillin and 100 µg/mL streptomycin (Life Technologies, Dreieich, Germany). Cisplatin (Sigma, Taufkirchen, Germany) was freshly dissolved at 1 mg/mL in 0.9% NaCl solution and diluted appropriately. New ruthenium(II) complexes and ligands were dissolved in dmso. Platinum-resistant A2780 and SKOV3 cells were established by repeated rounds of 3-day incubations with increasing amounts of Cisplatin starting with 0.1 µM. The concentration was doubled after 3 incubations, interrupted by recovery phases with normal medium. […] Determinations of IC50 values were carried out using the CellTiter96 non-radioactive proliferation assay (MTT assay, Promega, Mannheim, Germany). After seeding 5000 cells per well in a 96-well plate, cells were allowed to attach for 24 h and were incubated for 48 h with different concentrations of the substances ranging from 0 to 500 µM for Ruthenium and 0 to 1000 µM for ligand tests (0, 1, 10, 50, 100, 500, 1000 µm), for Cisplatin from 0 to 100 µM (0.1, 1, 5, 10, 50, 100 µM). Each measurement was done in triplicate and repeated 3 times. The proportion of viable cells was quantified by the MTT assay and after background subtraction relative values compared to the mean of medium controls were calculated. Non-linear regression analyses applying the Hill slope were run in GraphPad 5.0 software.

[2] = system: A2780; experiment: MTT assay (CellTiter96), cytotoxic activity; details: 48 h incubation
Method: as §1, §2

[3] = system: A549; experiment: MTT assay (CellTiter96), cytotoxic activity; details: lung carcinoma cell line, 48 h incubation
Method: as §1, §2

[4] = system: SKOV3cis; experiment: MTT assay (CellTiter96), cytotoxic activity; details: for IC50: Cisplatin resistant SKOV3, MTT assay, 48 h incubation; for RF SKOV3 (resistance factor): SKOV3cis vs SKOV3
Method: as §1, §2

[5] = system: SKOV3; experiment: MTT assay (CellTiter96), cytotoxic activity; details: 48 h incubation
Method: as §1, §2

[6] = system: Cisplatin resistant cell lines; experiment: Mean IC50 (MTT assay) on Cisplatin resistant cell lines
Method: Thus, it can be concluded that the biological activity is mediated by a longer chain (butoxy) at the meta-position, whereas the ortho- and para-positions are more suitable with a shorter chain (ethoxy). To have a further look at the influence of the different ligand systems and substitution patterns, all β-Hydroxydithiocinnamic acid alkyl esters were tested under same conditions as their derived ruthenium(II) complexes (Figure 5B, Supplementary Table S3). […] All ligands are less cytotoxic than Cisplatin itself and therefore the metal(II) center is necessary for the high cytotoxic activity, what is in clear contrast to the literature for O,S-chelating ruthenium(II) or osmium(II) compounds with thiomaltol ligand [48, 71] but confirmed for Ru(II)/Os(II) compounds with N,N-bidentate glycosyl heterocyclic ligands. This is exemplarily shown by the comparison of mean IC50 values for Cisplatin, L14, and Ru14 (Supplementary Figure S8).
as §2

Row | Compound | RF A2780 (resistance factor) [1] | IC50 [1] [µM] | IC50 [2] [µM] | IC50 [3] [µM] | IC50 [4] [µM] | RF SKOV3 (resistance factor) [4] | IC50 [5] [µM] | mean IC50 value on Cisplatin resistant cell lines compared with Cisplatin [6]
1 | CCSC(=S)C=C([O][Ru][Cl])c1ccc(O)cc1.Cc1ccc(C(C)C)cc1 [Ru6, [(η^6-p-cymene)Ru(1-(4-hydroxyphenyl)-3-(ethylthio)-3-thioxo-prop-1-en-1-olate-O,S)Cl]] | 1 | 15.3 | 15.4 | 48.5 | 22.6 | 0.8 | 28.6 | –
2 | [(η^6-p-cymene)Os(1-(3-ethoxyphenyl)-3-(methylthio)-3-thioxo-prop-1-en-1-olate-O,S)] [Os14] | 4.3 | 1.3 | 0.3 | 5.5 | 12.1 | 1.2 | 10.4 | –
3 | CCSC(=S)C=C([O][Ru][Cl])c1ccccc1.Cc1ccc(C(C)C)cc1 [Ru2, [(η^6-p-cymene)Ru(1-phenyl-3-(ethylthio)-3-thioxo-prop-1-en-1-olate-O,S)Cl]] | 0.48 | 4.8 | 10 | 12.2 | 11.1 | 0.7 | 15.7 | lower
4 | [(η^6-p-cymene)Ru(1-(3-butoxyphenyl)-3-(methylthio)-3-thioxo-prop-1-en-1-olate-O,S)] [Ru16] | 1.3 | 6.8 | 5.4 | 4.9 | 13.2 | 1 | 13.2 | –
5 | CSC(=S)C=C([O][Ru][Cl])c1ccc(O)cc1.Cc1ccc(C(C)C)cc1 [Ru4, [(η^6-p-cymene)Ru(1-(4-hydroxyphenyl)-3-(methylthio)-3-thioxo-prop-1-en-1-olate-O,S)Cl]] | 1 | 21.4 | 21.4 | 26.3 | 27.9 | 1.3 | 21.8 | –
6 | [(η^6-p-cymene)Os(1-(2-ethoxyphenyl)-3-(methylthio)-3-thioxo-prop-1-en-1-olate-O,S)] [Os13] | 2.7 | 0.8 | 0.3 | 3.1 | 7.1 | 1.7 | 4.1 | –
7 | CCSC(=S)C=C([O][Ru][Cl])c1cccc(O)c1.Cc1ccc(C(C)C)cc1 [Ru5, [(η^6-p-cymene)Ru(1-(3-hydroxyphenyl)-3-(ethylthio)-3-thioxo-prop-1-en-1-olate-O,S)Cl]] | 0.2 | 8.1 | 44.9 | 11.5 | 9.3 | 0.6 | 15.4 | lower
8 | [(η^6-p-cymene)Ru(1-(2-methoxyphenyl)-3-(ethylthio)-3-thioxo-prop-1-en-1-olate-O,S)] [Ru10] | 0.8 | 11.7 | 14.6 | 27.7 | 17.7 | 0.6 | 27.7 | –
9 | [(η^6-p-cymene)Os(1-(2-methoxyphenyl)-3-(methylthio)-3-thioxo-prop-1-en-1-olate-O,S)] [Os7] | 5.3 | 2.1 | 0.4 | 6.2 | 0.6 | 0.1 | 8.8 | –
10 | [(η^6-p-cymene)Ru(1-(4-methoxyphenyl)-3-(methylthio)-3-thioxo-prop-1-en-1-olate-O,S)] [Ru9] | 0.7 | 16.4 | 24.2 | 39.6 | 12.5 | 0.5 | 25.3 | –
11 | [(η^6-p-cymene)Ru(1-(2-ethoxyphenyl)-3-(methylthio)-3-thioxo-prop-1-en-1-olate-O,S)] [Ru13] | 1.8 | 4.8 | 2.6 | 28.4 | 17.4 | 1 | 16.9 | –
12 | [(η^6-p-cymene)Ru(1-(3-methoxyphenyl)-3-(ethylthio)-3-thioxo-prop-1-en-1-olate-O,S)] [Ru11] | 0.8 | 11.8 | 15.6 | 19 | 16.8 | 1 | 17 | –
13 | [(η^6-p-cymene)Ru(1-(4-methoxyphenyl)-3-(ethylthio)-3-thioxo-prop-1-en-1-olate-O,S)] [Ru12] | 0.9 | 10.1 | 11 | 6.9 | 12.7 | 0.5 | 24 | –
14 | [(η^6-p-cymene)Ru(1-(2-methoxyphenyl)-3-(methylthio)-3-thioxo-prop-1-en-1-olate-O,S)] [Ru7] | 0.9 | 15 | 16.4 | 15.3 | 17.8 | 0.8 | 22.4 | –
15 | [(η^6-p-cymene)Ru(1-(4-ethoxyphenyl)-3-(methylthio)-3-thioxo-prop-1-en-1-olate-O,S)] [Ru15] | 0.8 | 4.4 | 5.8 | 16.5 | 3.7 | 0.5 | 7.4 | lower
16 | [(η^6-p-cymene)Ru(1-(4-butoxyphenyl)-3-(methylthio)-3-thioxo-prop-1-en-1-olate-O,S)] [Ru17] | 0.7 | 9.8 | 14.2 | 15.1 | 17.5 | 1 | 17.2 | –
17 | [(η^6-p-cymene)Ru(1-(3-methoxyphenyl)-3-(methylthio)-3-thioxo-prop-1-en-1-olate-O,S)] [Ru8] | 1.2 | 16.8 | 14.3 | 13.7 | 20.3 | 1 | 21.3 | –
